Consider one compound from publication PMC12333940, “A prometabolite strategy inhibits cardiometabolic disease in an ApoE^–/– murine model of atherosclerosis” (JCI Insight, 2025).

Several values for one entry are separate records, joined by “and”; a condition that tells them apart may be missing. Identical values can stand only once.

Data set [1] is described as follows: Body weight during treatment. To be noted: in g (unit assumed). The data set is classed as in vivo, ApoE^–/– mice. From the text:
SerBut water was pH adjusted using 10 M NaOH to a final pH of 7.4. […] After 6 weeks, mice were euthanized. […] The liver was harvested and part was homogenized in tissue protein extraction reagent buffer (Invitrogen, 78510) supplemented with protease inhibitor mini tablets (Thermo Fisher Scientific, PIA32955) for Western blotting and qPCR.

Data set [2] deals with bone marrow–derived dendritic cells (BMDCs). More on the design: method as in PMID 38561491, PMID 27897220. To be noted: BMDCs ref 28, 40; cited from earlier work.
Data set [3] relates to HDAC. More on the design: method as in PMID 38561491. To be noted: RAW 264.7 ref 28; cited from earlier work.

For `CCCC(=O)OC[C@H](N)C(=O)O` [SerBut, O-butyryl-L-serine], the Weight in data set [1] (week 0, 150 mM in drinking water with HFD, individual mice) is 18.7 and 18.3 and 20 and 18.8 and 17 and 19.2 and 18.6 and 18.9 and 20.5 and 19.6; in data set [1] (week 2) it was 20.9 and 20.5 and 20.2 and 18.7 and 20 and 20.6 and 20.3 and 21.2; in data set [1] (week 2.5), 21.2 and 20.6 and 21.6 and 19.8 and 21.4 and 21.5 and 20.7 and 21.9; in data set [1] (week 5), 24 and 22.2 and 21.8 and 20.2 and 21.1 and 22.4 and 21.4 and 22.7; in data set [1] (week 6), 23.8 and 21.9 and 22.9 and 19.2 and 21.6 and 22.7 and 21.4 and 23.1. For the same compound, the “inflammatory marker expression” value in data set [2] was “suppressed inflammatory marker expression”. Besides, in data set [3], the “HDAC inhibition activity” value is given as “maintained attenuated HDAC inhibition activity”.
